Laboratory results published in patent US8946238B2, “Pyrazolo[1,5-A]pyrimidines as antiviral agents” (Gilead Sciences, Inc., priority 2011, dated 2015).

These molecules were tested on RSV strain A2 (assay: RSV antiviral cytoprotection assay in Hep2 cells (RSV-induced cytopathic effect, Cell TiterGlo)). Conditions: human respiratory syncytial virus, HEp-2, 0.5 μM compound; RSV A2-infected Hep2 cells; % inhibition calculated from 4-parameter dose response curve, normalized to 0% and 100%; read-out: Percent inhibition at 0.5 μM.
Format: cell-based, Respiratory Syncytial Virus (RSV)
Outline: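 Hep2 cells were infected with RSV A2 and exposed to 3-fold compound dilutions, either 3,000 cells/well for 4 days (96-well) or 2000 cells/well at MOI 1:1000 for 5 days at 37° C. (384-well). Cytopathic effect was read by Cell TiterGlo luminescence, and EC50 or normalized % inhibition came from curve fits against infected and uninfected controls.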
In the case of `Cc1cn2nc([C@@H]3CCCCN3C(=O)c3cccc4c3cnn4C)cc2nc1N1CC[C@H](N)C1` [Compound 98], the inhibition at 0.5 µM is reported as 97%.
With `Cc1cn2nc([C@@H]3CCCCN3C(=O)c3c(F)cccc3F)cc2nc1N1CC[C@H](N)C1` [Compound 79] the inhibition at 0.5 µM was 100%.
With `COC(=O)[C@H]1C[C@@H](N)CN1c1nc2cc([C@@H]3CCCCN3C(=O)c3cc(Cl)ccc3NS(C)(=O)=O)nn2cc1C` [Compound 12] the inhibition at 0.5 µM was 89%.
`Cc1ccc(F)cc1C(=O)N1CCCC[C@H]1c1cc2nc(N3CC[C@H](N)C3)c(C)cn2n1` [Compound 78] was tested, and the inhibition at 0.5 µM was 100%.
In the case of `Cc1cn2nc([C@@H]3CCCCN3C(=O)c3ccc(F)cn3)cc2nc1N1CC[C@H](N)C1` [Compound 26], the inhibition at 0.5 µM is reported as 84%.
In the case of `Cc1cn2nc([C@@H]3CCCCN3C(=O)c3ncccc3Br)cc2nc1N1CC[C@H](N)C1` [Compound 76], the inhibition at 0.5 µM is reported as 99%.
`CCS(=O)(=O)c1ccc(F)c(C(=O)N2CCCC[C@H]2c2cc3nc(N4C[C@@H](C#N)[C@@H](O)C4)c(C)cn3n2)c1` [Compound 145] was tested, and the inhibition at 0.5 µM was 60%.
